Source: patent publication US20220340633A1 (Adepthera LLC, priority 2016, published 2022)
Entries after “also recorded” stand apart in the source; their conditions may differ. Positions of bridges follow the written chain, without caps; N, C: chain ends. Non-standard residues stand in square brackets, D forms with d. Residues, ends and D or L forms follow the SMILES beside them. *: point of attachment. Palmitoyl = CCCCCCCCCCCCCCCC(=O)*; AEEA = NCCOCCOCC(=O)O

Key:
CLR/RAMP3 receptor = CLR/RAMP3 receptor (Homo sapiens, UniProt O60896+Q16602); test: CLR/RAMP3 cAMP receptor activation assay (agonist); type: cell-based; set-up: host or cells: CHO-K1 cells; conditions: CHO-K1, read-out: CLR/RAMP 3 Max Activity % of positive control
Method: (§1) Using a receptor activation assay, the dose-dependent stimulatory response of peptide agonists of the present invention on a CLR/RAMP1 receptor, a CLR/RAMP2, or a CLR/RAMP3 receptor complex was determined. A cell line carrying the recombinant CLR/RAMP1, CLR/RAMP2, or a CLR/RAMP3 receptor was employed in the assay. Peptide agonist activities were tested, in duplicate, at 10 different concentrations, starting with 1.0 μM and serially diluted 3-fold, in DMSO. […] The CLR/RAMP1 cAMP, CLR/RAMP2 arrestin assays, and CLR/RAMP3 cAMP (DiscoveRx, Fremont, Calif.) were used.

CLR/RAMP2 receptor = target: T1, CLR/RAMP2 receptor (Homo sapiens, UniProt O60895+Q16602); test: CLR/RAMP2 arrestin receptor activation assay (agonist); type: cell-based; conditions: for Emax: CHO-K1, read-out: CLR/RAMP 2 Max Activity % of positive control, CHO-K1 cells, % of positive control (ADM)
T1 construct: host or cells: CHO-K1 cells
Method: as §1

CLR/RAMP1 receptor = CLR/RAMP1 receptor (Homo sapiens, UniProt O60894+Q16602); test: CLR/RAMP1 cAMP receptor activation assay (agonist); type: cell-based; set-up: host or cells: 1321N1 cells; conditions: for Emax: 1321-N1, read-out: CLR/RAMP 1 Max Activity % of positive control, 1321N1 cells, % of positive control (β-CGRP)
Method: as §1

[1] = system: primary human lymphatic endothelia cells (HLEC); test: HLEC proliferation in medium with 2% FBS, MTS assay; conditions: 30, 100, and 300 nM, 72 hrs
Method: (§2) The cells were cultured for 72 hrs, and cell viability was assayed with the MTS assay (Promega).

[2] = system: primary human lymphatic endothelia cells (HLEC); test: HLEC survival in medium with 0.1% FBS, MTS assay; conditions: 30, 100, and 300 nM, 72 hrs
Method: as §2

Sequence of CLR/RAMP1 receptor (Q16602 23-461): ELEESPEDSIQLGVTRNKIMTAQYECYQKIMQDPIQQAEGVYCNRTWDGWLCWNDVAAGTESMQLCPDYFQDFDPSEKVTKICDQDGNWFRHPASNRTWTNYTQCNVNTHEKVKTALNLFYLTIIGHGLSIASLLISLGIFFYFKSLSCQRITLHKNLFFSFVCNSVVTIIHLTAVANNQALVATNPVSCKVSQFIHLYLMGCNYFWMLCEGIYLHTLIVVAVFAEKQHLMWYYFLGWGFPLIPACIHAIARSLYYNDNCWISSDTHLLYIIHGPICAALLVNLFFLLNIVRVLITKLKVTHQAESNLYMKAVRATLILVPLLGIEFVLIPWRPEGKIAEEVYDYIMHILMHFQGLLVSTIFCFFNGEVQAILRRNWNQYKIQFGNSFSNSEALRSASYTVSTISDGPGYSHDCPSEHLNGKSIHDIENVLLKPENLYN
Sequence of CLR/RAMP1 receptor (O60894 27-148): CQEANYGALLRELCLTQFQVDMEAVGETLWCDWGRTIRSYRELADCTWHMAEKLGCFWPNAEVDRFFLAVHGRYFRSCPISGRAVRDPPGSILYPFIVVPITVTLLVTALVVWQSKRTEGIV
T1 sequence (Q16602 23-461): as the sequence (Q16602 23-461) above
T1 sequence (O60895 43-175): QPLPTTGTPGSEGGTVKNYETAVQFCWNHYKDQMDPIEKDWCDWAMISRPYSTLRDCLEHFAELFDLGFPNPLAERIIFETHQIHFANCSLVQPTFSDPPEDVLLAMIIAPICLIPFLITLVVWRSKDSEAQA
Sequence of CLR/RAMP3 receptor (Q16602 23-461): as the sequence (Q16602 23-461) above
Sequence of CLR/RAMP3 receptor (O60896 24-148): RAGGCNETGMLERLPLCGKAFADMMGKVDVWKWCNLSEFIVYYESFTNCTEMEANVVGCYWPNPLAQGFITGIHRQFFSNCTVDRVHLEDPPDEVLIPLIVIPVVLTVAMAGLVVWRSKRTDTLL

`CCCCCCCCCCCCCCCC(=O)NCCCC[C@H](NC(=O)COCCOCCN)C(=O)NCC(=O)N[C@H]1CSSC[C@@H](C(=O)N[C@H](C(=O)N[C@H](C(=O)N[C@@H](CCC(N)=O)C(=O)N[C@@H](CCCCN)C(=O)N[C@@H](CC(C)C)C(=O)N[C@@H](C)C(=O)N[C@@H](Cc2c[nH]cn2)C(=O)N[C@@H](CCC(N)=O)C(=O)N[C@H](C(=O)N[C@@H](Cc2ccc(O)cc2)C(=O)N[C@@H](CCC(N)=O)C(=O)N[C@@H](Cc2ccccc2)C(=O)N[C@H](C(=O)N[C@@H](CC(=O)O)C(=O)N[C@@H](CCCCN)C(=O)N[C@@H](CC(=O)O)C(=O)N[C@@H](CO)C(=O)N[C@@H](C)C(=O)N2CCC[C@H]2C(=O)N[C@H](C(=O)N[C@@H](CC(=O)O)C(=O)N2CCC[C@H]2C(=O)N[C@@H](CO)C(=O)N[C@@H](CO)C(=O)N2CCC[C@H]2C(=O)N[C@@H](Cc2c[nH]cn2)C(=O)N[C@@H](CO)C(=O)N[C@@H](Cc2ccc(O)cc2)C(N)=O)C(C)C)[C@@H](C)O)[C@@H](C)CC)C(C)C)[C@@H](C)O)NC(=O)[C@H]([C@@H](C)O)NC(=O)CNC(=O)[C@H](Cc2ccccc2)NC(=O)[C@H](CCCNC(=N)N)NC1=O` [SEQ ID NO: 48] (H-[AEEA]K(Palmitoyl)GCRFGTCTVQKLAHQIYQFTDKDSAPVDPSSPHSY-NH2; disulfide 4-9) was tested, and the Emax (CLR/RAMP3 receptor) was 141%, the Emax (CLR/RAMP2 receptor) was 77% and the EC50 (CLR/RAMP2 receptor; CHO-K1 cells stably expressing CLR/RAMP2, arrestin, positive control ADM, read-out: CLR/RAMP 2 EC50) was 0.2 nM. The Emax (CLR/RAMP1 receptor) was 78% and the EC50 (CLR/RAMP1 receptor; 1321N1 cells stably expressing CLR/RAMP1, cAMP, positive control β-CGRP, read-out: CLR/RAMP 1 EC50) was 0.3 nM.

With `CCCCCCCCCCCCCCCC(=O)NCCCC[C@H](NC(=O)COCCOCCN)C(=O)NCC(=O)N[C@H]1CSSC[C@@H](C(=O)N[C@H](C(=O)N[C@H](C(=O)N[C@@H](CCC(N)=O)C(=O)N[C@@H](CCCCN)C(=O)N[C@@H](CC(C)C)C(=O)N[C@@H](C)C(=O)N[C@@H](Cc2c[nH]cn2)C(=O)N[C@@H](CCC(N)=O)C(=O)N[C@H](C(=O)N[C@@H](Cc2ccc(O)cc2)C(=O)N[C@@H](CCC(N)=O)C(=O)N[C@@H](Cc2ccccc2)C(=O)N[C@H](C(=O)N[C@@H](CC(=O)O)C(=O)N[C@@H](CCCCN)C(=O)N[C@@H](CC(=O)O)C(=O)N[C@@H](CCCCN)C(=O)N[C@@H](CC(=O)O)C(=O)N[C@@H](CC(N)=O)C(=O)N[C@H](C(=O)N[C@@H](C)C(=O)N2CCC[C@H]2C(=O)N[C@@H](CCCNC(=N)N)C(=O)N[C@@H](CO)C(=O)N[C@@H](CCCCN)C(=O)N[C@H](C(=O)N[C@@H](CO)C(=O)N2CCC[C@H]2C(=O)N[C@@H](CCC(N)=O)C(=O)NCC(=O)N[C@@H](Cc2ccc(O)cc2)C(N)=O)[C@@H](C)CC)C(C)C)[C@@H](C)O)[C@@H](C)CC)C(C)C)[C@@H](C)O)NC(=O)[C@H]([C@@H](C)O)NC(=O)CNC(=O)[C@H](Cc2ccccc2)NC(=O)[C@H](CCCNC(=N)N)NC1=O` [SEQ ID NO: 69] the “HLEC proliferation (in words)” value [1] was “dose-dependently stimulated; also recorded: significantly promote”, the Emax (CLR/RAMP3 receptor) was 127% and the Emax (CLR/RAMP2 receptor) was 147%. The “HLEC survival (in words)” value [2] was “dose-dependently stimulated; also recorded: significantly promote” and the Emax (CLR/RAMP1 receptor) was 70%.
